Consider 58 compounds from patent US20250197382A1, “KIF18A INHIBITOR” (WIGEN BIOMEDICINE TECHNOLOGY (SHANGHAI) CO., LTD., priority 2022, published 2025).

A value given as a limit tells only on which side of the number the result lay.

Sequence of Recombinant human KIF18A (1-467His-tagged) protein (Q8NI77 1-467): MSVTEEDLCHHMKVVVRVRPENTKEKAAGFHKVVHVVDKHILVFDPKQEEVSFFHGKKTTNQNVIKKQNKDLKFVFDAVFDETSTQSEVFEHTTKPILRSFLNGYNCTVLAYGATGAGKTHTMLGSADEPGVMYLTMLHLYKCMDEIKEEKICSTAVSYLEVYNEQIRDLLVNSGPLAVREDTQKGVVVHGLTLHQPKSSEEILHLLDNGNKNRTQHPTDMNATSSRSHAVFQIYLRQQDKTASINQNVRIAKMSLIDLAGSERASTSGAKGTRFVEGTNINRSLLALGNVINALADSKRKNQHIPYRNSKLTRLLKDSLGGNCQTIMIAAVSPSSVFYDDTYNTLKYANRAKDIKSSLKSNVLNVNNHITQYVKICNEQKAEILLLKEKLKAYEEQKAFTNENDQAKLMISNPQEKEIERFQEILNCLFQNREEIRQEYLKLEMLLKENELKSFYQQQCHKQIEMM
Sequence of Recombinant human KIF18A (1-467His-tagged) protein (P02550 whole entry partner): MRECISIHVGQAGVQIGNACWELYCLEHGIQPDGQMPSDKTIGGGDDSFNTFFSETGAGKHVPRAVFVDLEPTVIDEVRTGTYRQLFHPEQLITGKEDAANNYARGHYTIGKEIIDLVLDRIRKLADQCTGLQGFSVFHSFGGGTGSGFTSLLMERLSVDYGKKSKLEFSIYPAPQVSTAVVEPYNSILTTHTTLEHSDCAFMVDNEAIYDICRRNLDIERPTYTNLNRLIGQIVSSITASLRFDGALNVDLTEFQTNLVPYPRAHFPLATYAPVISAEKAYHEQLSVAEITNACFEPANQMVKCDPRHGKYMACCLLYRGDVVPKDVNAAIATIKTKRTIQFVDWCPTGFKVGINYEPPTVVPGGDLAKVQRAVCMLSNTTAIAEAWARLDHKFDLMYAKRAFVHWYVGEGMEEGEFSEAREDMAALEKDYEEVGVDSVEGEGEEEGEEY
Sequence of Recombinant human KIF18A (1-467His-tagged) protein (P02554 whole entry partner): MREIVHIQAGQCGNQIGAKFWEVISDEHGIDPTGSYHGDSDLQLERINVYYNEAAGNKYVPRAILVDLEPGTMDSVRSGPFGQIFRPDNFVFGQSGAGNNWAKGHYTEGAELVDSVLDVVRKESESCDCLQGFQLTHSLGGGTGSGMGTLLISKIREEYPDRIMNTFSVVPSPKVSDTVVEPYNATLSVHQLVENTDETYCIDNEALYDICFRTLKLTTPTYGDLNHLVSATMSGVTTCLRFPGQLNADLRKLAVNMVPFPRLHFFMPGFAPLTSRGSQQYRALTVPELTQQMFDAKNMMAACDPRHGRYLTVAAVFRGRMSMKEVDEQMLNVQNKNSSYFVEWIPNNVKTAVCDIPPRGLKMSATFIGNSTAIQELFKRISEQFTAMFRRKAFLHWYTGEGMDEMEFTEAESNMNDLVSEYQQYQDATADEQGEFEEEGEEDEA

The target of this assay is Recombinant human KIF18A (1-467His-tagged) protein (Homo sapiens (Human), UniProt Q8NI77). Put plainly: KIF18A enzyme assay (microtubule-stimulated ATPase activity, ADP-Glo). The format is biochemical. The following applies: 30 nM KIF18A, ATP 75 μM, read-out: inhibitory activity against KIF18A IC50. An outline of the steps:
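Baculovirus-expressed human KIF18A (1-467, His-tagged; 30 nM) preincubated 15 min at room temperature with compound (22-point 2-fold series) in pH 7.5 Tris buffer containing 30 μg/mL pig microtubules and 1 μM paclitaxel.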
On to `C[C@@H]1CN(c2nc(C(=O)Nc3ccc(S(=O)(=O)N[C@@H](C)CO)cc3N3CCC4(CC3)CC4)cc3ccn(C)c23)CCO1` [Compound 511], for which the IC50 was at most 100 nM.

Consider `Cn1ccc2cc(C(=O)Nc3ccc(S(=O)(=O)NCCO)cc3N3CCC4(CC3)CC4)cc(OC3CCC3)c21` [Compound 439], for which the IC50 is at most 100 nM.

Consider `CN1CCc2cc(NC(=O)c3ccc(S(=O)(=O)NCCO)cc3N3CCC4(CC3)CC4)nc(NC(C)(C)CO)c21` [Compound 347], for which the IC50 is at most 100 nM.

As for `O=C(Nc1ccc(NS(=O)(=O)CCO)cc1N1CCC2(CC1)CC2)c1cc2c(c(N3CC(F)(F)C3)n1)OCC2` [Compound 100], the IC50 was at most 100 nM.

Turning to `C[C@H](CO)S(=O)(=O)Nc1ccc(NC(=O)c2cc3c(c(N4CCC(F)(F)CC4)n2)OCC3)c(N2CCC3(CC2)CC3)c1` [Compound 110], the IC50 is at most 100 nM.

With `C[C@@H]1CN(c2nc(C(=O)Nc3ccc(NS(=O)(=O)[C@@H](C)CO)cc3N3CCC4(CC3)CC4)cc3c2OCC3)CCO1` [Compound 111], the IC50 was at most 100 nM.

For `O=C(Nc1ccc(S(=O)(=O)NCCO)cc1N1CCC2(CC1)CC2)c1cc(OC2CCC2)c2occc2c1` [Compound 183], the IC50 was at most 100 nM.

As for `C[C@H](CO)NS(=O)(=O)c1ccc(C(=O)Nc2cc3c(c(N4CCC(F)(F)CC4)c2)N(C)CC3)c(N2CCC3(CC2)CC3)c1` [Compound 286], the IC50 is at most 100 nM.

Consider `O=C(Nc1cc2c(c(OC3CCC3)c1)OCC2)c1ccc(S(=O)(=O)NCCO)cc1N1CCC2(CC1)CC2` [Compound 23], for which the IC50 was at most 100 nM.

For the compound `O=C(Nc1cc2ocnc2c(N2CCC(F)(F)CC2)n1)c1ccc(NS(=O)(=O)CCO)cc1N1CCC2(CC1)CC2` [Compound 518], the IC50 is at most 100 nM.

Take `Cn1ccc2cc(NC(=O)c3ccc(NS(=O)(=O)CCO)cc3N3CCC4(CC3)CC4)nc(N3CCC(C)(F)C3)c21` (stereo not shown) [Compound 456]: the IC50 is at most 100 nM.

`Cn1ccc2cc(NC(=O)c3ccc(S(=O)(=O)NCCO)cc3N3CCC4(CC3)CC4)nc(N3CC(F)(F)C3)c21` [Compound 468]: the IC50 was at most 100 nM.

For the compound `C[C@@H](CO)S(=O)(=O)Nc1ccc(C(=O)Nc2cc(N3CCC(F)(F)CC3)c3occc3c2)c(N2CCC3(CC2)CC3)c1` [Compound 141], the IC50 is at most 100 nM.

Take `C[C@@H](CO)S(=O)(=O)Nc1ccc(C(=O)Nc2cc3c(c(N4CCC(F)(F)CC4)c2)N(C)CC3)c(N2CCC3(CC2)CC3)c1` [Compound 269]: the IC50 was at most 100 nM.

On to `O=C(Nc1cc2c(c(N3CC(F)(F)C3)c1)OCC2)c1ccc(S(=O)(=O)NCCO)cc1N1CCC2(CC1)CC2` [Compound 20], for which the IC50 is at most 100 nM.

In the case of `CN1CCc2cc(C(=O)Nc3ccc(NS(=O)(=O)CCO)cc3N3CCC4(CC3)CC4)cc(OCCC(F)(F)F)c21` [Compound 293], the IC50 was at most 100 nM.

Consider `C[C@H]1CN(c2cc(NC(=O)c3ccc(NS(=O)(=O)CCO)cc3N3CCC4(CC3)CC4)cc3c2N(C)CC3)CCO1` [Compound 259], for which the IC50 was at most 100 nM.

`CN1CCc2cc(C(=O)Nc3ccc(S(=O)(=O)NCCO)cc3N3CCC4(CC3)CC4)nc(N3CCOCC3)c21` [Compound 380]: the IC50 is at most 100 nM.

With `CN1CCc2cc(C(=O)Nc3ccc(NS(=O)(=O)CCO)cc3N3CCC4(CC3)CC4)nc(OC3CCC3)c21` [Compound 359], the IC50 is at most 100 nM.

On to `C[C@@H]1CN(c2nc(C(=O)Nc3ccc(NS(=O)(=O)[C@@H](C)CO)cc3N3CCC4(CC3)CC4)cc3ccoc23)CCO1` [Compound 239], for which the IC50 was at most 100 nM.

Take `O=C(Nc1ccc(NS(=O)(=O)CCO)cc1N1CCC2(CC1)CC2)c1cc(N2CC(F)(F)C2)c2occc2c1` [Compound 164]: the IC50 was at most 100 nM.

In the case of `C[C@@H](CO)NS(=O)(=O)c1ccc(C(=O)Nc2cc3c(c(N4CCC(F)(F)CC4)c2)OCC3)c(N2CCC3(CC2)CC3)c1` [Compound 29], the IC50 was at most 100 nM.

For `C[C@H]1CN(c2cc(C(=O)Nc3ccc(NS(=O)(=O)CCO)cc3N3CCC4(CC3)CC4)cc3c2N(C)CC3)CCO1` [Compound 291], the IC50 is at most 100 nM.

For `C[C@H](CO)S(=O)(=O)Nc1ccc(C(=O)Nc2cc3ccoc3c(N3CCC(F)(F)CC3)n2)c(N2CCC3(CC2)CC3)c1` [Compound 206], the 50% inhibitory concentration (IC50) was at most 100 nM.

In the case of `C[C@H](CO)S(=O)(=O)Nc1ccc(C(=O)Nc2cc3c(c(N4CCC(F)(F)CC4)n2)N(C)CC3)c(N2CCC3(CC2)CC3)c1` [Compound 334], the IC50 was at most 100 nM.

`C[C@H](CO)NS(=O)(=O)c1ccc(C(=O)Nc2cc(N3CCO[C@H](C)C3)c3occc3c2)c(N2CCC3(CC2)CC3)c1` [Compound 160]: the IC50 was at most 100 nM.

Consider `CN1CCc2cc(C(=O)Nc3ccc(NS(=O)(=O)CCO)cc3N3CCC4(CC3)CC4)nc(N3CCC(C)(F)C3)c21` (stereo not shown) [Compound 360], for which the IC50 was at most 100 nM.

Consider `C[C@H](CO)NS(=O)(=O)c1ccc(C(=O)Nc2cc(N3CCC(F)(F)CC3)c3occc3c2)c(N2CCC3(CC2)CC3)c1` [Compound 158], for which the IC50 is at most 100 nM.

For the compound `O=C(Nc1cc2c(c(N3CCOCC3)c1)OCC2)c1ccc(S(=O)(=O)NCCO)cc1N1CCC2(CC1)CC2` [Compound 28], the IC50 is at most 100 nM.

As to `C[C@H](CO)S(=O)(=O)Nc1ccc(NC(=O)c2cc3c(c(N4CCC(F)(F)CC4)c2)OCC3)c(N2CCC3(CC2)CC3)c1` [Compound 46], the IC50 was at most 100 nM.

For `C[C@H](CO)NS(=O)(=O)c1ccc(NC(=O)c2cc(N3CCC(F)(F)CC3)c3occc3c2)c(N2CCC3(CC2)CC3)c1` [Compound 190], the IC50 is at most 100 nM.

`C[C@@H]1CN(c2cc(NC(=O)c3ccc(S(=O)(=O)NCCO)cc3N3CCC4(CC3)CC4)cc3c2N(C)CC3)CCO1` [Compound 274]: the IC50 was at most 100 nM.

On to `O=C(Nc1ccc(NS(=O)(=O)CCO)cc1N1CCC2(CC1)CC2)c1cc2c(c(N3CCC4(CC4)C3)n1)OCC2` [Compound 102], for which the IC50 is at most 100 nM.

With `C[C@H]1CN(c2nc(NC(=O)c3ccc(NS(=O)(=O)CCO)cc3N3CCC4(CC3)CC4)cc3ccn(C)c23)CCO1` [Compound 451], the IC50 was at most 100 nM.

Consider `C[C@@H](CO)NS(=O)(=O)c1ccc(C(=O)Nc2cc(N3CCC(F)(F)CC3)c3c(ccn3C)c2)c(N2CCC3(CC2)CC3)c1` [Compound 413], for which the IC50 was at most 100 nM.

Regarding `O=C(Nc1ccc(S(=O)(=O)NCCO)cc1N1CCC2(CC1)CC2)c1cc2c(c(OC3CCC3)n1)OCC2` [Compound 119], the IC50 was at most 100 nM.

In the case of `C[C@@H]1CN(c2cc(C(=O)Nc3ccc(NS(=O)(=O)[C@H](C)CO)cc3N3CCC4(CC3)CC4)cc3c2OCC3)CCO1` [Compound 48], the IC50 was at most 100 nM.

Turning to `CN1CCc2cc(C(=O)Nc3ccc(S(=O)(=O)NCCO)cc3N3CCC4(CC3)CC4)cc(N3CC(F)(F)C3)c21` [Compound 308], the IC50 is at most 100 nM.

As to `CN1CCc2cc(NC(=O)c3ccc(S(=O)(=O)NCCO)cc3N3CCC4(CC3)CC4)cc(N3CCOCC3)c21` [Compound 284], the IC50 is at most 100 nM.

Take `O=C(Nc1cc2c(c(N3CCC(F)(F)CC3)c1)NCC2)c1ccc(NS(=O)(=O)CCO)cc1N1CCC2(CC1)CC2` [Compound 523]: the IC50 was at most 100 nM.

Turning to `CN1CCc2cc(C(=O)Nc3ccc(S(=O)(=O)NCCO)cc3N3CCC4(CC3)CC4)nc(N3CCC(C)(F)C3)c21` (stereo not shown) [Compound 376], the IC50 is at most 100 nM.

`Cn1ccc2cc(NC(=O)c3ccc(S(=O)(=O)NCCO)cc3N3CCC4(CC3)CC4)nc(N3CCC4(CC4)C3)c21` [Compound 470]: the IC50 is at most 100 nM.

In the case of `C[C@@H]1CN(c2nc(NC(=O)c3ccc(NS(=O)(=O)[C@@H](C)CO)cc3N3CCC4(CC3)CC4)cc3ccoc23)CCO1` [Compound 207], the IC50 was at most 100 nM.

With `O=C(Nc1ccc(NS(=O)(=O)CCO)cc1N1CCC2(CC1)CC2)c1cc2ccoc2c(OCCC(F)(F)F)n1` [Compound 229], the IC50 is at most 100 nM.

Turning to `Cn1ccc2cc(C(=O)Nc3ccc(S(=O)(=O)NCCO)cc3N3CCC4(CC3)CC4)nc(N3CCC(F)CC3)c21` [Compound 505], the IC50 is at most 100 nM.

Consider `O=C(Nc1cc(N2CCC(F)(F)CC2)c2scnc2c1)c1ccc(NS(=O)(=O)CCO)cc1N1CCC2(CC1)CC2` [Compound 515], for which the IC50 is at most 100 nM.

Take `Cn1ccc2cc(C(=O)Nc3ccc(NS(=O)(=O)CCO)cc3N3CCC4(CC3)CC4)cc(N3CC(F)(F)C3)c21` [Compound 420]: the IC50 is at most 100 nM.

With `C[C@H]1CN(c2cc(C(=O)Nc3ccc(NS(=O)(=O)CCO)cc3N3CCC4(CC3)CC4)cc3ccoc23)CCO1` [Compound 163], the IC50 was at most 100 nM.

Take `O=C(Nc1cc2c(c(N3CCC4(CC4)C3)c1)OCC2)c1ccc(S(=O)(=O)NCCO)cc1N1CCC2(CC1)CC2` [Compound 22]: the IC50 was at most 100 nM.

As for `O=C(Nc1cc(OCCC(F)(F)F)c2occc2c1)c1ccc(S(=O)(=O)NCCO)cc1N1CCC2(CC1)CC2` [Compound 149], the IC50 was at most 100 nM.

For the compound `CN1CCc2cc(NC(=O)c3ccc(S(=O)(=O)NCCO)cc3N3CCC4(CC3)CC4)cc(N3CCC(F)(F)CC3)c21` [Compound 273], the IC50 was at most 100 nM.

Consider `Cn1ccc2cc(NC(=O)c3ccc(S(=O)(=O)NCCO)cc3N3CCC4(CC3)CC4)cc(NC(C)(C)CO)c21` [Compound 411], for which the IC50 is at most 100 nM.

For `CN1CCc2cc(C(=O)Nc3ccc(S(=O)(=O)NCCO)cc3N3CCC4(CC3)CC4)nc(NC(C)(C)CO)c21` [Compound 379], the IC50 is at most 100 nM.

As for `Cn1ccc2cc(C(=O)Nc3ccc(S(=O)(=O)NCCO)cc3N3CCC4(CC3)CC4)nc(N3CC4CC4C3)c21` (stereo not shown) [Compound 506], the IC50 is at most 100 nM.

Regarding `O=C(Nc1ccc(NS(=O)(=O)CCO)cc1N1CCC2(CC1)CC2)c1cc(OCCC(F)(F)F)c2occc2c1` [Compound 165], the IC50 was at most 100 nM.

Consider `O=C(Nc1ccc(S(=O)(=O)NCCO)cc1N1CCC2(CC1)CC2)c1cc2c(c(N3CC(F)(F)C3)c1)OCC2` [Compound 52], for which the IC50 is at most 100 nM.

For `C[C@H]1CN(c2nc(C(=O)Nc3ccc(S(=O)(=O)NCCO)cc3N3CCC4(CC3)CC4)cc3c2N(C)CC3)CCO1` [Compound 371], the IC50 is at most 100 nM.

`O=C(Nc1cc(N2CCC(F)(F)CC2)c2[nH]cnc2c1)c1ccc(NS(=O)(=O)CCO)cc1N1CCC2(CC1)CC2` [Compound 525]: the IC50 is at most 100 nM.
